Laboratory results taken from ChEMBL document CHEMBL5058645, “Data for DCP probe JNJ-6204” (2022).

Experiments:
[1] = biological target: Activin receptor type-1B (Homo sapiens) (UniProt P36896); experiment: ALK4(h) Kinase panel; settings: Compound concentration 1.0 uM, tested as the 2H-labelled form
[2] = biological target: Serine/threonine-protein kinase BRSK2 (Homo sapiens) (UniProt Q8IWQ3); experiment: BrSK2(h) Kinase panel; settings: Compound concentration 1.0 uM, tested as the 2H-labelled form
[3] = biological target: Cyclin-dependent kinase 1 (Homo sapiens) (UniProt P06493); experiment: CDK1/cyclinB(h) Kinase panel; settings: Compound concentration 1.0 uM, tested as the 2H-labelled form
Sequence of Cyclin-dependent kinase 1 (Homo sapiens) (P06493 whole entry, looked up): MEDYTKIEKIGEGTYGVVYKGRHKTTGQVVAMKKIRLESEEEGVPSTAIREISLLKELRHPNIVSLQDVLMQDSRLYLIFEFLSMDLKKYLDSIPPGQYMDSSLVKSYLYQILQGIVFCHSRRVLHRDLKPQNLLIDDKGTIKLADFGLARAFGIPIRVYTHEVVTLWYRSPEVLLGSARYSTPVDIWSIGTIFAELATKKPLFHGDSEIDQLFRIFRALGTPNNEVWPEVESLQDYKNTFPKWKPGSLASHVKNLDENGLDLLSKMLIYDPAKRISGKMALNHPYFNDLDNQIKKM

[4] = biological target: Cyclin-dependent kinase 4 (Homo sapiens) (UniProt P11802); experiment: CDK4/cyclinD3(h) Kinase panel; settings: Compound concentration 1.0 uM, tested as the 2H-labelled form
[5] = biological target: Cyclin-dependent kinase 5 (Homo sapiens) (UniProt Q00535); experiment: CDK5/p25(h) Kinase panel; settings: Compound concentration 1.0 uM, tested as the 2H-labelled form
[6] = biological target: Cyclin-dependent kinase 9 (Homo sapiens) (UniProt P50750); experiment: CDK9/cyclin T1(h) Kinase panel; settings: Compound concentration 1.0 uM, tested as the 2H-labelled form
Sequence of Cyclin-dependent kinase 9 (Homo sapiens) (P50750 whole entry): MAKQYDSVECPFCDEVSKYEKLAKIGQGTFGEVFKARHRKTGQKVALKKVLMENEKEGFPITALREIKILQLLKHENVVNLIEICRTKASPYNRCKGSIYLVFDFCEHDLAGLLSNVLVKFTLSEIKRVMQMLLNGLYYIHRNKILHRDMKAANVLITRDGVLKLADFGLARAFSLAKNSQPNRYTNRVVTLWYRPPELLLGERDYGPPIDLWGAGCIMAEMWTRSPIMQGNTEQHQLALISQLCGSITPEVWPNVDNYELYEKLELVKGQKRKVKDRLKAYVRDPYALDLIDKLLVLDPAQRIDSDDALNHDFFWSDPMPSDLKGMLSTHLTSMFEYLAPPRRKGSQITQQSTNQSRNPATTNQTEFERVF

[7] = biological target: Cyclin-dependent kinase-like 4 (Homo sapiens) (UniProt Q5MAI5); experiment: CDKL4(h) Kinase panel; settings: Compound concentration 1.0 uM, tested as the 2H-labelled form
[8] = biological target: Casein kinase I isoform alpha (Homo sapiens, UniProt P48729); experiment: CK1alpha(h) Kinase panel; settings: Compound concentration 1.0 uM, tested as the 2H-labelled form
[9] = biological target: Casein kinase I isoform gamma-1 (Homo sapiens) (UniProt Q9HCP0); experiment: CK1gamma1(h) Kinase panel; settings: Compound concentration 1.0 uM, tested as the 2H-labelled form
Sequence of Casein kinase I isoform gamma-1 (Homo sapiens) (Q9HCP0 whole entry, looked up, canonical isoform): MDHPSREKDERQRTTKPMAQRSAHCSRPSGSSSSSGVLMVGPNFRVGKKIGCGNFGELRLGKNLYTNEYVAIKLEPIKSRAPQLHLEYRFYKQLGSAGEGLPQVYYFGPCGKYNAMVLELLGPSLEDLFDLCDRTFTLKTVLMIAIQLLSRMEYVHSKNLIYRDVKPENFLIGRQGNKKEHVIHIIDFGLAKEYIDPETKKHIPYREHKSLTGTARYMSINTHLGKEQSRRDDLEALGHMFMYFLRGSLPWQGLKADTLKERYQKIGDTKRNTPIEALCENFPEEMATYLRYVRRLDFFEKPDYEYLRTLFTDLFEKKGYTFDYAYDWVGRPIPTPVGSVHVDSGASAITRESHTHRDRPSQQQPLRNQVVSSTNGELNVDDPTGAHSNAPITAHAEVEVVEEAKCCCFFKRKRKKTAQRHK

[10] = biological target: Casein kinase II subunit alpha (Homo sapiens) (UniProt P68400); experiment: CK2alpha1(h) Kinase panel; settings: Compound concentration 1.0 uM, tested as the 2H-labelled form
[11] = biological target: RAF proto-oncogene serine/threonine-protein kinase (Homo sapiens) (UniProt P04049); experiment: c-RAF(h) Kinase panel; settings: Compound concentration 1.0 uM, tested as the 2H-labelled form
[12] = biological target: Serine/threonine-protein kinase 17A (Homo sapiens) (UniProt Q9UEE5); experiment: DRAK1(h) Kinase panel; settings: Compound concentration 1.0 uM, tested as the 2H-labelled form
[13] = biological target: Dual specificity tyrosine-phosphorylation-regulated kinase 1B (Homo sapiens) (UniProt Q9Y463); experiment: DYRK1B(h) Kinase panel; settings: Compound concentration 1.0 uM, tested as the 2H-labelled form
[14] = biological target: Tyrosine-protein kinase Fes/Fps (Homo sapiens) (UniProt P07332); experiment: Fes(h) Kinase panel; settings: Compound concentration 1.0 uM, tested as the 2H-labelled form
[15] = biological target: Vascular endothelial growth factor receptor 3 (Homo sapiens) (UniProt P35916); experiment: Flt4(h) Kinase panel; settings: Compound concentration 1.0 uM, tested as the 2H-labelled form
[16] = biological target: Beta-adrenergic receptor kinase 1 (Homo sapiens) (UniProt P25098); experiment: GRK2(h) Kinase panel; settings: Compound concentration 1.0 uM, tested as the 2H-labelled form
[17] = biological target: G protein-coupled receptor kinase 6 (Homo sapiens) (UniProt P43250); experiment: GRK6(h) Kinase panel; settings: Compound concentration 1.0 uM, tested as the 2H-labelled form
[18] = biological target: Homeodomain-interacting protein kinase 4 (Homo sapiens) (UniProt Q8NE63); experiment: HIPK4(h) Kinase panel; settings: Compound concentration 1.0 uM, tested as the 2H-labelled form
[19] = biological target: Serine/threonine-protein kinase ICK (Homo sapiens) (UniProt Q9UPZ9); experiment: ICK(h) Kinase panel; settings: Compound concentration 1.0 uM, tested as the 2H-labelled form
[20] = biological target: Tyrosine-protein kinase JAK2 (Homo sapiens) (UniProt O60674); experiment: JAK2(h) Kinase panel; settings: Compound concentration 1.0 uM, tested as the 2H-labelled form
[21] = biological target: Mitogen-activated protein kinase 8 (Homo sapiens) (UniProt P45983); experiment: JNK1alpha1(h) Kinase panel; settings: Compound concentration 1.0 uM, tested as the 2H-labelled form
[22] = biological target: LIM domain kinase 2 (Homo sapiens) (UniProt P53671); experiment: LIMK2(h) Kinase panel; settings: Compound concentration 1.0 uM, tested as the 2H-labelled form
[23] = biological target: Tyrosine-protein kinase Lyn (Homo sapiens) (UniProt P07948); experiment: Lyn(h) Kinase panel; settings: Compound concentration 1.0 uM, tested as the 2H-labelled form
[24] = biological target: Serine/threonine-protein kinase MAK (Homo sapiens) (UniProt P20794); experiment: MAK(h) Kinase panel; settings: Compound concentration 1.0 uM, tested as the 2H-labelled form
[25] = biological target: Mitogen-activated protein kinase kinase kinase kinase 4 (Homo sapiens) (UniProt O95819); experiment: MAP4K4(h) Kinase panel; settings: Compound concentration 1.0 uM, tested as the 2H-labelled form
[26] = biological target: MAP/microtubule affinity-regulating kinase 4 (Homo sapiens) (UniProt Q96L34); experiment: MARK4(h) Kinase panel; settings: Compound concentration 1.0 uM, tested as the 2H-labelled form
[27] = biological target: Tyrosine-protein kinase Mer (Homo sapiens) (UniProt Q12866); experiment: Mer(h) Kinase panel; settings: Compound concentration 1.0 uM, tested as the 2H-labelled form
[28] = biological target: Hepatocyte growth factor receptor (Homo sapiens) (UniProt P08581); experiment: Met(h) Kinase panel; settings: Compound concentration 1.0 uM, tested as the 2H-labelled form
[29] = biological target: Ribosomal protein S6 kinase alpha-5 (Homo sapiens) (UniProt O75582); experiment: MSK1(h) Kinase panel; settings: Compound concentration 1.0 uM, tested as the 2H-labelled form
[30] = biological target: Serine/threonine-protein kinase 3 (Homo sapiens) (UniProt Q13188); experiment: MST2(h) Kinase panel; settings: Compound concentration 1.0 uM, tested as the 2H-labelled form
[31] = biological target: Serine/threonine-protein kinase 24 (Homo sapiens) (UniProt Q9Y6E0); experiment: MST3(h) Kinase panel; settings: Compound concentration 1.0 uM, tested as the 2H-labelled form
[32] = biological target: Muscle, skeletal receptor tyrosine-protein kinase (Homo sapiens) (UniProt O15146); experiment: MuSK(h) Kinase panel; settings: Compound concentration 1.0 uM, tested as the 2H-labelled form
Sequence of Muscle, skeletal receptor tyrosine-protein kinase (Homo sapiens) (O15146 whole entry): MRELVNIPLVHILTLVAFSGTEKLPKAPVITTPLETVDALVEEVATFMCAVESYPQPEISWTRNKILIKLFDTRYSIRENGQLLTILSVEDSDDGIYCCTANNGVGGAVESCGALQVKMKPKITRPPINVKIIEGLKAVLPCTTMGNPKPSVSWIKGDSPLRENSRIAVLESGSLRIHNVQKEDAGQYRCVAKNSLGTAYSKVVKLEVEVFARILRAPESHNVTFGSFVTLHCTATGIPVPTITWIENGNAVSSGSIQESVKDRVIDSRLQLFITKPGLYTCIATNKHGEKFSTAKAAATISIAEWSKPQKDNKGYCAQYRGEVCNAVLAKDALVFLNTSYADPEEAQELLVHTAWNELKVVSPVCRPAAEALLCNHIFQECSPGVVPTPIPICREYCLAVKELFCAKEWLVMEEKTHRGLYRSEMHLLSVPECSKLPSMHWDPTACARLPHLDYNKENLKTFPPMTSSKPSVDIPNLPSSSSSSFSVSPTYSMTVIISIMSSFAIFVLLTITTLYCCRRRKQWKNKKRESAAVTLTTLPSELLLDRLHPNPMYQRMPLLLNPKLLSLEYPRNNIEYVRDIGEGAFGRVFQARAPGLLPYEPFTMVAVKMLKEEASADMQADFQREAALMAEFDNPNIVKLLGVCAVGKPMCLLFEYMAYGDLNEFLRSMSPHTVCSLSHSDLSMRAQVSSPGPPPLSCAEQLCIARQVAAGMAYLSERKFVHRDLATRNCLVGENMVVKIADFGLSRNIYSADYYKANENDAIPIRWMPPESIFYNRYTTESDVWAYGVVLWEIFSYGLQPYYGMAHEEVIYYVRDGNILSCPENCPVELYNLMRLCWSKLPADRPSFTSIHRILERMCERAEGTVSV

[33] = biological target: Serine/threonine-protein kinase OSR1 (Homo sapiens) (UniProt O95747); experiment: OSR1(h) Kinase panel; settings: Compound concentration 1.0 uM, tested as the 2H-labelled form
[34] = biological target: Protein kinase C gamma type (Homo sapiens) (UniProt P05129); experiment: PKCgamma(h) Kinase panel; settings: Compound concentration 1.0 uM, tested as the 2H-labelled form
[35] = biological target: Serine/threonine-protein kinase D2 (Homo sapiens) (UniProt Q9BZL6); experiment: PKD2(h) Kinase panel; settings: Compound concentration 1.0 uM, tested as the 2H-labelled form
[36] = biological target: Serine/threonine-protein kinase N1 (Homo sapiens) (UniProt Q16512); experiment: PRK1(h) Kinase panel; settings: Compound concentration 1.0 uM, tested as the 2H-labelled form
Sequence of Serine/threonine-protein kinase N1 (Homo sapiens) (Q16512 2-942 limits assumed): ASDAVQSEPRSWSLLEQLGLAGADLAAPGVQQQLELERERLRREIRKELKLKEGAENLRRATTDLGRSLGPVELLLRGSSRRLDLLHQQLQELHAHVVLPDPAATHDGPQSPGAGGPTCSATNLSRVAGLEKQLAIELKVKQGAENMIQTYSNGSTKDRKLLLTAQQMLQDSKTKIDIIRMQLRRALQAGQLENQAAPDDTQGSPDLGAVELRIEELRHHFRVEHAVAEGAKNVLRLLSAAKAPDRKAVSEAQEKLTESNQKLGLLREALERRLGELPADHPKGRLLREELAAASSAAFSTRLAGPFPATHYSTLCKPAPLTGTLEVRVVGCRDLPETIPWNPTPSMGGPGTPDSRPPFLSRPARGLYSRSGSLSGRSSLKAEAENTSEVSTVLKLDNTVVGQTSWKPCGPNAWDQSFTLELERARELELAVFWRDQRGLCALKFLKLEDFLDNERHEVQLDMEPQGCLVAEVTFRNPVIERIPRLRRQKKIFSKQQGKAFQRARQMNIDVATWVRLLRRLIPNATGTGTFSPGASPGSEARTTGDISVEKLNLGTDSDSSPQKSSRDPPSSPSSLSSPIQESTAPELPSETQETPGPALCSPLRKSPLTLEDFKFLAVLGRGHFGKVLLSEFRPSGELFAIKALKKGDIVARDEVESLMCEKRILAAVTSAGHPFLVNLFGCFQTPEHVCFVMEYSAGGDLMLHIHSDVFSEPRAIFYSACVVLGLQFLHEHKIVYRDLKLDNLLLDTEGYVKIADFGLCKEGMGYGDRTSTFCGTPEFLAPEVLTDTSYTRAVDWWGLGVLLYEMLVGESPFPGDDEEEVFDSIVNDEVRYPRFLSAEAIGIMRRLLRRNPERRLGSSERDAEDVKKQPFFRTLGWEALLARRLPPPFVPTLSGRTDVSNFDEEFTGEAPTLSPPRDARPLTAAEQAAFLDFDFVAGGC

[37] = biological target: Receptor-interacting serine/threonine-protein kinase 1 (Homo sapiens) (UniProt Q13546); experiment: RIPK1(h) Kinase panel; settings: Compound concentration 1.0 uM, tested as the 2H-labelled form
[38] = biological target: Serine/threonine-protein kinase SBK1 (Homo sapiens) (UniProt Q52WX2); experiment: SBK1(h) Kinase panel; settings: Compound concentration 1.0 uM, tested as the 2H-labelled form
[39] = biological target: Serine/threonine-protein kinase Sgk1 (Homo sapiens) (UniProt O00141); experiment: SGK(h) Kinase panel; settings: Compound concentration 1.0 uM, tested as the 2H-labelled form
[40] = biological target: Serine/threonine-protein kinase 32B (Homo sapiens) (UniProt Q9NY57); experiment: STK32B(h) Kinase panel; settings: Compound concentration 1.0 uM, tested as the 2H-labelled form
[41] = biological target: Tau-tubulin kinase 2 (Homo sapiens) (UniProt Q6IQ55); experiment: TTBK2(h) Kinase panel; settings: Compound concentration 1.0 uM, tested as the 2H-labelled form
[42] = biological target: Non-receptor tyrosine-protein kinase TYK2 (Homo sapiens) (UniProt P29597); experiment: TYK2(h) Kinase panel; settings: Compound concentration 1.0 uM, tested as the 2H-labelled form
[43] = biological target: Serine/threonine-protein kinase ULK2 (Homo sapiens) (UniProt Q8IYT8); experiment: ULK2(h) Kinase panel; settings: Compound concentration 1.0 uM, tested as the 2H-labelled form
Sequence of Serine/threonine-protein kinase ULK2 (Homo sapiens) (Q8IYT8 whole entry): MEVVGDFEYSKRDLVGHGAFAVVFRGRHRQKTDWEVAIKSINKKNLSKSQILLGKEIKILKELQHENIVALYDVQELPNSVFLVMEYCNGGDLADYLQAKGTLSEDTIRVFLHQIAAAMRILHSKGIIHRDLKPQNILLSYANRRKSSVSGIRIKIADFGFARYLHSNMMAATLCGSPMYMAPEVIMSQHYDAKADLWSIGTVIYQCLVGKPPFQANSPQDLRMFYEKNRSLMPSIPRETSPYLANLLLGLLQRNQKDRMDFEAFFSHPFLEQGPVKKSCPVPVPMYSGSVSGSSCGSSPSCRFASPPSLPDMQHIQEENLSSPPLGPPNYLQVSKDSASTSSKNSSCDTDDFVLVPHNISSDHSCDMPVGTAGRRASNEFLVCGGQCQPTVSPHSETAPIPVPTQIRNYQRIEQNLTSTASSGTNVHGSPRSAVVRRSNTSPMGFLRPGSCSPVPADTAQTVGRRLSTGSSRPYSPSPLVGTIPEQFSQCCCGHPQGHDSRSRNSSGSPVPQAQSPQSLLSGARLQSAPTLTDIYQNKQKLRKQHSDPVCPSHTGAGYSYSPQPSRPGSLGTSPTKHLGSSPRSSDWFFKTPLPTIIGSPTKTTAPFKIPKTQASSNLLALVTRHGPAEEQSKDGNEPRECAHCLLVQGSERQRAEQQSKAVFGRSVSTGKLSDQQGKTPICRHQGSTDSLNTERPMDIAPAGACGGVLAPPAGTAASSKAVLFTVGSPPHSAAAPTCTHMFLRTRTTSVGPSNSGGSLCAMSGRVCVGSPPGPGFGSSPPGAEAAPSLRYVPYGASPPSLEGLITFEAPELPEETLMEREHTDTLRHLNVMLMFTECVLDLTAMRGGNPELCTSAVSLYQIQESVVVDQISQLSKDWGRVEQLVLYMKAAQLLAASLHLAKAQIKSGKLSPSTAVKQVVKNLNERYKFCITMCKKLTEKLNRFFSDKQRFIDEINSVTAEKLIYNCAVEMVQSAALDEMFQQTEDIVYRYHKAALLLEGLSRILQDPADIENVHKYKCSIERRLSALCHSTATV

[44] = biological target: Serine-protein kinase ATM (Homo sapiens) (UniProt Q13315); experiment: ATM(h) Kinase panel; settings: Compound concentration 1.0 uM, tested as the 2H-labelled form
[45] = biological target: Phosphatidylinositol 4,5-bisphosphate 3-kinase catalytic subunit delta isoform (Homo sapiens) (UniProt O00329); experiment: PI3 Kinase (p110d/p85a)(h) Kinase panel; settings: Compound concentration 1.0 uM, tested as the 2H-labelled form
[46] = biological target: Phosphatidylinositol 4-phosphate 5-kinase type-1 alpha (Homo sapiens) (UniProt Q99755); experiment: PIP5K1a(h) Kinase panel; settings: Compound concentration 1.0 uM, tested as the 2H-labelled form
[47] = biological target: 5-hydroxytryptamine receptor 1B (Homo sapiens) (UniProt P28222); settings: Compound concentration 10.0 uM, tested as the 2H-labelled form
Sequence of 5-hydroxytryptamine receptor 1B (Homo sapiens) (P28222 whole entry): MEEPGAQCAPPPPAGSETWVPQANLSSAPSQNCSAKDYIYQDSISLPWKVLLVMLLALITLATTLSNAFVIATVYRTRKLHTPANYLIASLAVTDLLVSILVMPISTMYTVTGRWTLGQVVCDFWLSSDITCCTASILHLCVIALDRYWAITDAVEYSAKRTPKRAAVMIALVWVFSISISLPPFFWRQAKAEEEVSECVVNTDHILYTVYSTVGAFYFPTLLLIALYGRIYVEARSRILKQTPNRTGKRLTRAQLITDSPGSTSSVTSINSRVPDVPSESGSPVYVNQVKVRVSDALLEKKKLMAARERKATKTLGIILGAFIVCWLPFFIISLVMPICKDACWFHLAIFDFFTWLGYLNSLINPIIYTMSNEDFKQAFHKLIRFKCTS

[48] = biological target: 5-hydroxytryptamine receptor 2A (Homo sapiens) (UniProt P28223); settings: Compound concentration 10.0 uM, tested as the 2H-labelled form
[49] = biological target: D(1A) dopamine receptor (Homo sapiens) (UniProt P21728); settings: Compound concentration 10.0 uM, tested as the 2H-labelled form
Sequence of D(1A) dopamine receptor (Homo sapiens) (P21728 whole entry): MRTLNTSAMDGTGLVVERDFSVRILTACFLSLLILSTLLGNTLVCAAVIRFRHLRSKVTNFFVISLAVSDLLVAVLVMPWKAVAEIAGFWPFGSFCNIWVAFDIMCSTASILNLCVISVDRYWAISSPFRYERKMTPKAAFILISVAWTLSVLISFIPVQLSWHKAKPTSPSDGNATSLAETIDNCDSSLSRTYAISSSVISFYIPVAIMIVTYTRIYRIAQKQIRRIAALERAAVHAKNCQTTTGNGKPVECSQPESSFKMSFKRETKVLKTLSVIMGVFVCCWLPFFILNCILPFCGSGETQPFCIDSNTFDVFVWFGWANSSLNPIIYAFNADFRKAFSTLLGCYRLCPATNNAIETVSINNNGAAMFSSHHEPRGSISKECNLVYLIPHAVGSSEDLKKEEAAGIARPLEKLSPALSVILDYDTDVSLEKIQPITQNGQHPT

[50] = biological target: Histamine H1 receptor (Homo sapiens) (UniProt P35367); settings: Compound concentration 10.0 uM, tested as the 2H-labelled form
[51] = biological target: Beta-1 adrenergic receptor (Homo sapiens) (UniProt P08588); settings: Compound concentration 10.0 uM, tested as the 2H-labelled form
Rattus norvegicus = organism: Rattus norvegicus; settings: Compound concentration 10.0 uM, tested as the 2H-labelled form

Work on CC1(C)Cn2nc(-c3ccc(F)cn3)c(-c3ccnc4[nH]ncc34)c2CO1 yielded an inhibition [1] of 25%, an inhibition [2] of -2% and an inhibition [3] of -8%. For the same compound, the inhibition [4] was 13%, the inhibition [5] was 20% and the inhibition [6] was -3%. The inhibition [7] was 9%, the inhibition [8] was 73% and the inhibition [9] was 4%. It also gave an inhibition [10] of 2%, an inhibition [11] of 12% and an inhibition [12] of 14%. The inhibition [13] was -10%, the inhibition [14] was 14% and the inhibition [15] was 7%. For the same compound, the inhibition [16] was -8%, the inhibition [17] was -9% and the inhibition [18] was 8%. The inhibition [19] was 10%, the inhibition [20] was 1% and the inhibition [21] was -6%. The inhibition [22] was -3%, the inhibition [23] was 21% and the inhibition [24] was 10%. It also gave an inhibition [25] of 21%, an inhibition [26] of 4% and an inhibition [27] of 6%. The inhibition [28] was 8%, the inhibition [29] was 8% and the inhibition [30] was 9%. For the same compound, the inhibition [31] was -2%, the inhibition [32] was -7% and the inhibition [33] was 9%. For the same compound, the inhibition [34] was 3%, the inhibition [35] was 5% and the inhibition [36] was 9%. For the same compound, the inhibition [37] was 5%, the inhibition [38] was -1% and the inhibition [39] was 11%. The inhibition [40] was 0%, the inhibition [41] was 0% and the inhibition [42] was -5%. It also gave an inhibition [43] of 17%, an inhibition [44] of 3% and an inhibition [45] of 2%. For the same compound, the inhibition [46] was -4%, the inhibition [47] was 12.4% and the inhibition [48] was 16.5%. It also gave an inhibition [49] of -1.8%, an inhibition [50] of -9.94% and an inhibition [51] of -1.12%. For the same compound, the inhibition (Rattus norvegicus) was 50.9%.
